{"source": "paper PMC10982999", "about": "“Structure-Guided Design and Optimization of Covalent VHL-Targeted Sulfonyl Fluoride PROTACs” (Journal of Medicinal Chemistry, 2024)", "molecular_target": "T1, AR (AR-HiBiT LNCaP cells) (Homo sapiens, UniProt P10275, T878A)", "T1 construct": "host or cells: AR-HiBiT KI LNCaP", "T1 sequence (P10275 1-920 T878A)": "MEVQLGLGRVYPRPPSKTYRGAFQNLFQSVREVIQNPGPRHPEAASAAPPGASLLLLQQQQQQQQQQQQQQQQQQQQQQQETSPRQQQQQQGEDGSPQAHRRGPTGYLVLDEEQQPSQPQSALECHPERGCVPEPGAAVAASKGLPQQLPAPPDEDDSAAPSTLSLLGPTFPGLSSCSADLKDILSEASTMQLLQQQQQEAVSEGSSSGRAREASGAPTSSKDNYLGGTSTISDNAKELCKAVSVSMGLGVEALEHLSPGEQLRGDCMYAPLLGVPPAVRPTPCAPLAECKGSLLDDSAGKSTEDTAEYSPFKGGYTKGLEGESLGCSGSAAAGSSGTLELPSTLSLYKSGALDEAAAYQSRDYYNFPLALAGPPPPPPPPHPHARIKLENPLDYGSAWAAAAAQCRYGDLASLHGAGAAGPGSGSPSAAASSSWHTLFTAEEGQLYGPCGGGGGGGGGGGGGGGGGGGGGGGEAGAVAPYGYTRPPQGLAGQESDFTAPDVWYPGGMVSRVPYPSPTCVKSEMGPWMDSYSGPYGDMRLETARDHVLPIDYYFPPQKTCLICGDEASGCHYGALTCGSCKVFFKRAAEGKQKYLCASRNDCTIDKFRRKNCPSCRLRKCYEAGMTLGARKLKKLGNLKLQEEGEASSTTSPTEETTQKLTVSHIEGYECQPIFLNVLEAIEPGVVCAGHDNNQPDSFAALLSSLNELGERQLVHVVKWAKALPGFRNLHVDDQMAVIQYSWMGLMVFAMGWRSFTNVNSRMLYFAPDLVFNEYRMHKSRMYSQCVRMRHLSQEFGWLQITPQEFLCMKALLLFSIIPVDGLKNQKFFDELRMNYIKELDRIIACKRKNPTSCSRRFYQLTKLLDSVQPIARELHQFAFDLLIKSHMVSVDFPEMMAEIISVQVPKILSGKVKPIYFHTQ", "test": "AR HiBiT degradation assay", "assay_type": "cell-based", "settings": "read-out: AR DC50", "protocol": "Cellular BRD4/AR HiBiT assay\nThe HiBiT tagged cells were seeded at 10,000 cells per well in a 384-well plate (Thermo Scientific, 164610) at 25 µL per well in DMEM media containing 10% FBS and incubated overnight. Compounds were dispensed using D300e Digital Dispenser (HP) and normalized to 0.1% DMSO. Cells were pre-treated with Epoxomicin or MLN4924 for 3 h before treatment […]\nNano -Glo HiBiT lytic detection assay was performed as described in the manufacturer protocol (Promega). 25 µL of premixed detection reagent was added to each well of the 384 well assay plate and incubated for 15 min on an orbital shaker (at 600 RPM), and luminescence was read using a PHERAstar FS plate reader (BMG Labtech). Corresponding background RLU values were subtracted from DMSO control values and the percentage of protein (%) of were then calculated against […]\nDMSO-treated controls. […]\n1:1000 WB), Tubulin (Sigma #4967S 1:5000 WB).", "data": [{"smiles": "Cc1cc([C@H](C(=O)N2C[C@H](S(=O)(=O)F)C[C@H]2C(=O)N[C@@H](CC(=O)OC(C)(C)C)c2ccc(-c3scnc3C)cc2)C(C)C)on1", "note": "[VHL-SF2, tert-Butyl (S)-3-((2S,4R)-4-(Fluorosulfonyl)-1-((R)-3-methyl-2-(3-methylisoxazol-5-yl)butanoyl)pyrr-olidine-2-carboxamido)-3-(4-(4-methylthiazol-5-yl)phenyl)propanoate]", "values": [{"measurement": "DC50", "result": "> 75", "unit": "µM"}]}]}
